Values after ≈ are worked out from the molar mass of the structure shown. Blank lines part the entries; values can stand above or below the compound they belong to.
Columns and labels:
Experiment in all cases: ≥ marks a high value that may be exact or a test limit, other limits are often not marked, values filed in µg/mL are converted to µM
Enterococcus faecium = test system: Enterococcus faecium
[1] = test system: Staphylococcus aureus K52
[2] = test system: Staphylococcus aureus ATCC 25923
[3] = test system: Enterococcus faecalis ATCC 29212
[4] = test system: Staphylococcus aureus K35
[5] = test system: Escherichia coli ATCC 25922
[6] = test system: Staphylococcus aureus MRSA-G
[7] = test system: Staphylococcus aureus MRSA-16
[8] = test system: Staphylococcus aureus ATCC 29213
[9] = test system: Pseudomonas aeruginosa ATCC 21630
[10] = test system: Pseudomonas aeruginosa LCCI
[11] = test system: Pseudomonas aeruginosa LCCE
[12] = test system: Pseudomonas aeruginosa ATCC 27853
[13] = test system: Pseudomonas aeruginosa ATCC 21625
[14] = test system: Pseudomonas aeruginosa LC
[15] = test system: Salmonella enterica subsp. enterica serovar Typhimurium C77-31
[16] = test system: Staphylococcus epidermidis ATCC 12228
[17] = test system: Pseudomonas aeruginosa LCGE
[18] = test system: Pseudomonas aeruginosa ATCC 10419
[19] = test system: Staphylococcus aureus 68 HER 1049
[20] = test system: Escherichia coli K12 MG1655
[21] = test system: Staphylococcus aureus ATCC 33592
[22] = test system: Acinetobacter baumannii ATCC BAA-1794
[23] = test system: Pseudomonas aeruginosa PAO1
[24] = test system: Escherichia coli ATCC 51659
[25] = test system: Staphylococcus aureus ATCC 9144
[26] = test system: Corynebacterium glutamicum ATCC 13032
Botrytis cinerea 101 = test system: Botrytis cinerea 101
Listeria grayi DSM 20601 = test system: Listeria grayi DSM 20601
[27] = test system: Klebsiella aerogenes CGMCC 1.876
[28] = test system: Enterobacter cloacae CGMCC 1.58
[29] = test system: Pseudomonas aeruginosa CGMCC 1.860
[30] = test system: Enterococcus faecium CGMCC 1.2334
[31] = test system: Proteus mirabilis CICC 22931
[32] = test system: Lactococcus lactis AS1.1690
[33] = test system: Klebsiella pneumoniae subsp. pneumoniae CGMCC 1.176
[34] = test system: Acinetobacter baumannii CICC 22934
Escherichia coli AS1.349 = test system: Escherichia coli AS1.349
Bacillus cereus AS1.126 = test system: Bacillus cereus AS1.126
[35] = test system: Enterococcus faecalis CGMCC 1.595
[36] = test system: Staphylococcus aureus AS1.72

SMILES: CC[C@H](C)[C@H](NC(=O)CNC(=O)[C@H](CO)NC(=O)[C@H](CC(C)C)NC(=O)[C@@H](NC(=O)[C@H](CCCN=C(N)N)NC(=O)CNC(=O)[C@@H](NC(=O)[C@H](CC(C)C)NC(=O)[C@@H]1CCCN1C(=O)[C@H](CC(C)C)NC(=O)[C@@H](N)CCCCN)[C@@H](C)CC)C(C)C)C(=O)N[C@@H](CC(C)C)C(N)=O [KLPLIGRVLSGIL]
MIC (Enterococcus faecium): ≥ 116 µM
MIC [1]: ≥ 58.2 µM
MIC [2]: 83.7 µM (≈ 115 µg/mL)
MIC [3]: > 168 µM
MIC [4]: ≥ 58.2 µM

SMILES: CC[C@H](C)[C@H](NC(=O)CNC(=O)[C@H](CCCCN)NC(=O)[C@H](Cc1ccccc1)NC(=O)[C@H](CC(C)C)NC(=O)[C@H](CCCCN)NC(=O)[C@H](Cc1c[nH]c2ccccc12)NC(=O)[C@@H](N)CCCCN)C(=O)N[C@@H](CCCN=C(N)N)C(=O)N[C@@H](C)C(=O)N[C@H](C(=O)N[C@@H](CC(C)C)C(=O)N[C@@H](CCCCN)C(=O)N[C@H](C(=O)N[C@@H](CC(C)C)C(=O)O)C(C)C)C(C)C [KWKLFKGIRAVLKVL]
MIC [19]: 4.45 µM (≈ 8 µg/mL)
MIC [20]: 2.22 µM (≈ 4 µg/mL)

SMILES: CC(C)C[C@H](NC(=O)[C@H](CCCCN)NC(=O)[C@H](CCC(=O)O)NC(=O)[C@H](CCCCN)NC(=O)[C@@H](NC(=O)[C@H](CCCCN)NC(=O)[C@H](CCCCN)NC(=O)[C@H](Cc1ccccc1)NC(=O)[C@H](Cc1cnc[nH]1)NC(=O)[C@H](CCC(=O)O)NC(=O)[C@H](CO)NC(=O)[C@H](Cc1ccccc1)NC(=O)[C@H](Cc1c[nH]c2ccccc12)NC(=O)[C@H](CC(N)=O)NC(=O)[C@H](CCCN=C(N)N)NC(=O)[C@@H](NC(=O)[C@H](CCCCN)NC(=O)[C@@H](NC(=O)[C@H](CO)NC(=O)[C@@H](N)Cc1ccccc1)[C@@H](C)O)[C@@H](C)O)C(C)C)C(=O)N[C@@H](CCCCN)C(=O)N[C@@H](CC(=O)O)C(=O)N[C@H](C(=O)N[C@@H](Cc1ccccc1)C(=O)N[C@@H](C)C(=O)O)[C@@H](C)O [FSTKTRNWFSEHFKKVKEKLKDTFA]
MIC [21]: ≥ 80.6 µM
MIC [22]: ≥ 80.6 µM
MIC [23]: > 80.6 µM
MIC [24]: ≥ 80.6 µM

SMILES: CC[C@H](C)[C@H](NC(=O)[C@H](CS)NC(=O)[C@@H](NC(=O)[C@H](CCCN=C(N)N)NC(=O)[C@H](CCCCN)NC(=O)[C@H](CC(C)C)NC(=O)[C@H](Cc1ccccc1)NC(=O)[C@H](CC(N)=O)NC(=O)CNC(=O)[C@@H](N)CS)[C@@H](C)O)C(=O)N[C@@H](CS)C(=O)N[C@H](C(=O)N[C@@H](CCCCN)C(=O)N[C@@H](CCCCN)C(=O)O)C(C)C [CGNFLKRTCICVKK]
MIC (Listeria grayi DSM 20601): ≥ 60 µM

The next lines start with the values.

MIC [5]: 1 µM (≈ 2.43 µg/mL)
MIC [6]: ≥ 32 µM
MIC [7]: ≥ 32 µM
SMILES: CC[C@H](C)[C@H](NC(=O)[C@H](C)NC(=O)[C@H](CCCCN)NC(=O)[C@@H](NC(=O)CNC(=O)CNC(=O)[C@H](Cc1c[nH]c2ccccc12)NC(=O)[C@H](Cc1ccccc1)NC(=O)[C@H](CCCCN)NC(=O)[C@H](CCCCN)NC(=O)[C@H](Cc1ccccc1)NC(=O)[C@@H](N)CO)C(C)C)C(=O)N[C@@H](Cc1ccccc1)C(=O)N[C@@H](CCCCN)C(=O)NCC(=O)N[C@@H](C)C(=O)N[C@@H](CCCN=C(N)N)C(=O)N[C@@H](CCCCN)C(=O)NCC(=O)N[C@@H](Cc1c[nH]c2ccccc12)C(=O)N[C@@H](CCCCN)C(=O)O [SFKKFWGGVKAIFKGARKGWK]

MIC [8]: 128 µM (≈ 283 µg/mL)
MIC [9]: ≥ 256 µM
MIC [5]: 128 µM (≈ 283 µg/mL)
MIC [10]: ≥ 256 µM
MIC [11]: ≥ 256 µM
MIC [12]: 128 µM (≈ 283 µg/mL)
MIC [13]: ≥ 256 µM
MIC [14]: ≥ 256 µM
MIC [15]: ≥ 256 µM
MIC [16]: 128 µM (≈ 283 µg/mL)
MIC [17]: ≥ 256 µM
MIC [18]: ≥ 256 µM
SMILES: CC[C@H](C)[C@H](NC(=O)[C@H](CCCCN)NC(=O)[C@H](CCCCN)NC(=O)[C@H](CC(C)C)NC(=O)[C@H](CCCN=C(N)N)NC(=O)[C@H](CCCCN)NC(=O)[C@H](CCCN=C(N)N)NC(=O)[C@H](CCCCN)NC(=O)[C@H](CCCCN)NC(=O)[C@H](CCCCN)NC(=O)[C@H](CCCN=C(N)N)NC(=O)[C@H](CC(C)C)NC(=O)[C@H](CCCN=C(N)N)NC(=O)[C@H](CCCN=C(N)N)NC(=O)[C@H](Cc1ccccc1)NC(=O)[C@@H](N)CCCN=C(N)N)C(N)=O [RFRRLRKKKRKRLKKI]

MIC [5]: > 100 µM
MIC [25]: ≥ 100 µM
MIC [26]: ≥ 100 µM
MIC (Botrytis cinerea 101): ≥ 100 µM
SMILES: CC[C@H](C)[C@H](NC(=O)[C@H](CCCCN)NC(=O)[C@@H](NC(=O)[C@H](CCCN=C(N)N)NC(=O)[C@H](C)NC(=O)[C@H](CCC(=O)O)NC(=O)[C@H](CCC(=O)O)NC(=O)[C@@H]1CCCN1C(=O)[C@@H](N)CO)C(C)C)C(=O)N[C@@H](CC(C)C)C(=O)N[C@H](C(=O)N[C@@H](C)C(=O)N[C@H](C(=O)N1CCC[C@H]1C(=O)N[C@@H](CCC(=O)O)C(=O)N[C@@H](CCSC)C(=O)N[C@@H](CCCN=C(N)N)C(=O)N[C@@H](CCC(=O)O)C(=O)N[C@@H](CCC(=O)O)C(=O)N[C@@H](CC(=O)O)C(=O)N[C@@H](CC(C)C)C(=O)N[C@@H](CO)C(=O)N[C@@H](CCC(=O)O)C(=O)N[C@@H](CCC(=O)O)C(=O)O)[C@@H](C)CC)[C@@H](C)O [SPEEARVKILTAIPEMREEDLSEE]

MIC [27]: ≥ 100 µM
MIC [28]: ≥ 100 µM
MIC [29]: ≥ 100 µM
MIC [30]: 3.13 µM (≈ 7.27 µg/mL)
MIC [31]: ≥ 100 µM
MIC [32]: 4.69 µM (≈ 10.9 µg/mL)
MIC [33]: ≥ 100 µM
MIC [34]: ≥ 100 µM
MIC (Escherichia coli AS1.349): ≥ 100 µM
MIC (Bacillus cereus AS1.126): 1.56 µM (≈ 3.63 µg/mL)
MIC [35]: 3.13 µM (≈ 7.27 µg/mL)
MIC [36]: 1.56 µM (≈ 3.63 µg/mL)
SMILES: CC(C)C[C@H](NC(=O)[C@H](CC(C)C)NC(=O)[C@H](Cc1ccccc1)NC(=O)[C@H](CCCN=C(N)N)NC(=O)[C@H](CCCN=C(N)N)NC(=O)[C@H](CC(C)C)NC(=O)[C@H](Cc1cnc[nH]1)NC(=O)[C@H](CCCN=C(N)N)NC(=O)[C@H](CC(C)C)NC(=O)[C@@H](NC(=O)[C@H](C)NC(=O)[C@@H](N)CO)C(C)C)C(=O)N[C@@H](CCCN=C(N)N)C(=O)N[C@@H](CCCCN)C(=O)N[C@@H](Cc1cnc[nH]1)C(=O)N[C@@H](CCCN=C(N)N)C(=O)N[C@@H](CCCCN)C(=O)N[C@@H](Cc1cnc[nH]1)C(=O)O [SAVLRHLRRFLLRKHRKH]

From DBAASP
